Reference: PMC13294191, “Oral peptide drug delivery: design of SEDDS providing a protective effect against intestinal membrane-bound enzymes” (Drug Delivery and Translational Research, 2025)
Where a SMILES comes first, the peptide text is derived from it.

Tests used:
[1] = molecular target: T1, Aminopeptidase N from porcine kidney (Sus scrofa, UniProt P15145); experiment: Inhibitory activity of SEDDS and excipients towards isolated aminopeptidase N; format: biochemical; conditions: excipient (caprylic acid 20 µL or citronellol 10 µL) solubilized with 20 µL PEG-35 castor oil in HBS pH 6.5, 500 µL; 500 µL of 41.6 mU/mL enzyme; 5 mM L-Leucine-4-nitroanilide; 1 h, 37 °C, 400 rpm; n ≥ 3
T1 construct: purchased Merck KGaA (Darmstadt, Germany); host or cells: porcine kidney (tissue-derived enzyme suspension)
T1 sequence (P15145 1-963): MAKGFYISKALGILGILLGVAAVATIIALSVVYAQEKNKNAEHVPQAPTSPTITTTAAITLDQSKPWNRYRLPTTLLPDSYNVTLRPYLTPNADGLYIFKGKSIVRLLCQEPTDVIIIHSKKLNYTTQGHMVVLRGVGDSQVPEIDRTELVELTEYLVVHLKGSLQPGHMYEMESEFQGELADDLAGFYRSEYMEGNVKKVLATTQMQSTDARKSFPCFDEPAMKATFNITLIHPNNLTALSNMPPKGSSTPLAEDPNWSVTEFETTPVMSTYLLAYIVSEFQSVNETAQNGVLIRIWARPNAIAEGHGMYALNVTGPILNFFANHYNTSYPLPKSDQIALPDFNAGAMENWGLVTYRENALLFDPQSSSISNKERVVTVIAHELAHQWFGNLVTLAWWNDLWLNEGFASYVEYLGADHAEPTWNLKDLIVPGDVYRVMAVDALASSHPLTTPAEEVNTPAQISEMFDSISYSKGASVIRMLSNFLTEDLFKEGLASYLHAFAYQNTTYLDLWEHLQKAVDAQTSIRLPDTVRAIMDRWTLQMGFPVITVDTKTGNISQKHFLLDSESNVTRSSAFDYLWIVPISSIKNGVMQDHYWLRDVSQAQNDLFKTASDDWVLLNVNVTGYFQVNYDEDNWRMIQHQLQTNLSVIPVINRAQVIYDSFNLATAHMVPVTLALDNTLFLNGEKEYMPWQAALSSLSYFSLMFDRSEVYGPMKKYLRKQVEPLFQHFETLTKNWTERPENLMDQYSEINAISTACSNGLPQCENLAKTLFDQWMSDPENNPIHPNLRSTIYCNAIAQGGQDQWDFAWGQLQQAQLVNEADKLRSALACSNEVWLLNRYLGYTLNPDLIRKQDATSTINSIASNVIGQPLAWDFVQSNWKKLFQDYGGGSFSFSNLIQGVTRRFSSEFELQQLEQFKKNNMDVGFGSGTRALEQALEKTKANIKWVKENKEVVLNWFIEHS
Procedure: Furthermore, a possible inhibitory effect of SEDDS and excipients on aminopeptidase N activity was investigated using the isolated enzyme, following a method previously described with slight modifications [28]. Surfactant solutions were prepared in 20 mM HBS pH 6.5 in the same concentration as they are present in SEDDS. Either 5% (v/v) SEDDS or surfactant solution were mixed in 500 µL together with further 500 µL of a 41.6 mU/mL enzyme solution in 20 mM HBS pH 6.5. L-Leucine- 4-nitroanilide was added prior to SEDDS and surfactant solution in a final concentration of 5 mM.
A 5 mM substrate solution served as the positive control, representing 100% enzyme activity. The samples were incubated on a thermomixer for 1 h at 37 °C and 400 rpm agitation. To stop the enzymatic reaction, 1 mL of methanol containing 2% (v/v) TFA were added to each sample. After centrifugation at 12,500 rpm, the concentration of 4-nitroaniline in the supernatant was quantified. The inhibitory activity was calculated using the following Eq. (5):5 Inhibitoryactivity[%]=100-Abssample/Abspositivecontrol×100

[2] = molecular target: T2, membrane-bound aminopeptidase N on rat intestinal mucosa (Rattus norvegicus, UniProt P15684)
T2 sequence (P15684 1-965): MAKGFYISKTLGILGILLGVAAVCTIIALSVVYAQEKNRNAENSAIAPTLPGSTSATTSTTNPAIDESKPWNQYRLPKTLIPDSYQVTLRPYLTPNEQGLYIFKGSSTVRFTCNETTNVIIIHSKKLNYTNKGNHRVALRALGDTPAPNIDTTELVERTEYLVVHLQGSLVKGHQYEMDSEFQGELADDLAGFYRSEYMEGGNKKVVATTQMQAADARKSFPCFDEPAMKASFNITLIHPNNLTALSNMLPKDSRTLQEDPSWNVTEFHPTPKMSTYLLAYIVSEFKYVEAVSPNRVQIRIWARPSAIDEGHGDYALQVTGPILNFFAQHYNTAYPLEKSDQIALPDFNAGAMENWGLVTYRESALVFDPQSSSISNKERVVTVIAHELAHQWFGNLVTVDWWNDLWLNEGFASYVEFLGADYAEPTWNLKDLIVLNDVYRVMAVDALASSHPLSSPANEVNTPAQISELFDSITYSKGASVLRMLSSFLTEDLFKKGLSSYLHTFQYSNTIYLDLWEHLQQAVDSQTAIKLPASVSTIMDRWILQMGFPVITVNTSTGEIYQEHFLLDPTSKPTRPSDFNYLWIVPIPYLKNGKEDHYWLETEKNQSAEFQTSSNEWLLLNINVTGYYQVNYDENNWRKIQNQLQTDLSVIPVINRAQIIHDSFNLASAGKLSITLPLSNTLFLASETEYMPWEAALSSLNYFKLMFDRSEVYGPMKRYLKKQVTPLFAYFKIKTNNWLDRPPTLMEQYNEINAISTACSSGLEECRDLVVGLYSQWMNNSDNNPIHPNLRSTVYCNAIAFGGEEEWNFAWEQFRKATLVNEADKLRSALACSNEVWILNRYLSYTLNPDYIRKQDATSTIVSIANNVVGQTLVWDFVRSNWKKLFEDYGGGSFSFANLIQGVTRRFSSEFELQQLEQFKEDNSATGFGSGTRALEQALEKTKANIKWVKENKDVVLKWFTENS
Procedure: Rat intestine was obtained freshly from male Sprague–Dawley rats (200–300 g) supplied by Janvier Labs (Saint Berthevin, France). The middle section of the small intestine was longitudinally dissected and thoroughly washed with HBS pH 6.5 to remove intestinal contents. The intestine was stored at − 20 °C in HBS until further use.
After thawing the small intestine was cut into 1 × 1 cm pieces that were placed in tubes containing 500 µL of HBS. SEDDS with dissolved HIP were emulsified in a concentration of 10% (v/v) in HBS. 500 µL of nanoemulsions were added to each tube to obtain a final concentration of 5% (v/v) SEDDS. Thereafter, samples were incubated on a thermomixer at 37 °C with continuous agitation at 400 rpm. Over a 4 h time period, 100 µL aliquots were withdrawn from each sample at predefined time intervals. To terminate the enzymatic reaction, an equal volume of methanol containing 2% (v/v) TFA was added to each aliquot. Subsequently, the concentration of tuftsin in the supernatant was quantified using HPLC.

[3] = pH 6.5
Procedure: The rat intestine was carefully cleaned to remove its intestinal contents and then cut into 1.5 cm sections. These sections were fixed in Ussing chambers with a surface area of 0.64 cm^2 and 1 mL of 20 mM HBS pH 6.5 was added to each acceptor chamber, while the donor chambers were filled with 1 mL of 5% (v/v) SEDDS in 20 mM HBS pH 6.5, facing the luminal side of the intestine.
The Ussing chambers were incubated in a water bath at 37 °C, and every 1 h, 100 µL aliquots were withdrawn from the acceptor chambers over a 4 h period. Withdrawn samples were replaced with pre-warmed HBS to maintain sink conditions. The concentration of permeated tuftsin in the collected aliquots was determined via HPLC and the apparent permeability coefficient [30]was subsequently calculated using the following Eq. (6):6 Papp[cms^-1]=Q[μg]/Acm^2cμgmL^-1t[s] where Papp is the apparent permeability coefficient, Q is the total amount of test substance permeated through the mucosa, A is the diffusion area of the Ussing chamber system, c is the initial concentration of tuftsin in the donor compartment and t is the total time of experiment.

| Inhibitory activity of single SEDDS-3 excipients towards aminopeptidase N [1] | Time to entire degradation of the unformulated peptide (abstract) [2] | Apparent permeability coefficient (Papp) of tuftsin [3] | Tuftsin permeated after 4 h of cumulative permeation (% of initial tuftsin) [3] | Structure (SMILES) |
| --- | --- | --- | --- | --- |
| 18% |  |  |  | CC(C)=CCCC(C)CCO (stereo not shown) [citronellol] |
|  | ≤ 20 min | 0.8 × 10^–5 cm/s | 7% | C[C@@H](O)[C@H](N)C(=O)N[C@@H](CCCCN)C(=O)N1CCC[C@H]1C(=O)N[C@@H](CCCNC(=N)N)C(=O)O [tuftsin, Tuftsin] (H-TKPR-OH) |
